In US8993570B2, “Substituted triazolo-pyridazine derivatives” (Concert Pharmaceuticals, Inc., priority 2009, dated 2015):

What was measured:
[1] = Metabolic stability in human liver microsomes; type: in vitro ADME; conditions: 0.25 μM test compound; for % Parent Remaining (30 min) Ave ± SD: human liver microsomes 2.0 mg/mL, 2 mM NADPH, pH 7.4, 37° C.; for half-life at 0.25 μM: pH 7.4, in vitro t1/2 in human liver microsomes 2.0 mg/mL, NC = not calculable due to <20% metabolism in HLM and flat profiles, read-out: t1/2 (min) Ave ± SD
Description: Microsomal Assay: Human liver microsomes (20 mg/mL) were obtained from Xenotech, LLC (Lenexa, Kans.). β-nicotinamide adenine dinucleotide phosphate, reduced form (NADPH), magnesium chloride (MgCl2), and dimethyl sulfoxide (DMSO) were purchased from Sigma-Aldrich.
Determination of Metabolic Stability: 7.5 mM stock solutions of test compounds were prepared in DMSO. The 7.5 mM stock solutions were diluted to 12.5 μM in acetonitrile (ACN). The 20 mg/mL human liver microsomes were diluted to 2.5 mg/mL in 0.1 M potassium phosphate buffer, pH 7.4, containing 3 mM MgCl2. The diluted microsomes were added to wells of a 96-well deep-well polypropylene plate in triplicate. […] of the 12.5 μM test compound was added to the microsomes and the mixture was pre-warmed for 10 minutes. Reactions were initiated by addition of pre-warmed NADPH solution. The final reaction volume was 0.5 mL and contains 2.0 mg/mL human liver microsomes, 0.25 μM test compound, and 2 mM NADPH in 0.1 M potassium phosphate buffer, pH 7.4, and 3 mM MgCl2. The reaction mixtures were incubated at 37° C., and 50 μL aliquots were removed at 0, 5, 10, 20, and 30 minutes and added to shallow-well 96-well plates which contain 50 μL of ice-cold ACN with internal standard to stop the reactions. The plates were stored at 4° C. for 20 minutes after which 100 μL of water was added to the wells of the plate before centrifugation to pellet precipitated proteins. Supernatants were transferred to another 96-well plate and analyzed for amounts of parent remaining by LC-MS/MS using an Applied Bio-systems API 4000 mass spectrometer. The same procedure was followed for TPA-023 and the positive control, 7-ethoxycoumarin (1 μM). Testing was done in triplicate and individual compounds were tested in two or four different runs.
The in vitro t1/2s for test compounds were calculated from the slopes of the linear regression of % parent remaining (ln) vs incubation time relationship: in vitro t1/2=0.693/k k=−[slope of linear regression of % parent remaining (ln) vs incubation time]. Data analysis was performed using Microsoft Excel Software.
The results of these experiments are shown in Table 3, below, and in FIGS. 1 and 2. In the Table and the two Figures, “% Parent remaining” refers to the percentage of starting material remaining at the specified time point.

[2] = humans, phase I clinical trial, cited from earlier work

Row | Compound | % Parent Remaining (30 min) Ave ± SD [1] [%] | also measured
1 | [2H]C([2H])(Oc1nn2c(-c3ccccc3F)nnc2cc1C(C([2H])([2H])[2H])(C([2H])([2H])[2H])C([2H])([2H])[2H])c1ncnn1C([2H])([2H])[2H] [Compound 110, 7-d9-tert-Butyl-3-(2-fluorophenyl)-6-((1-d3-methyl-1H-1,2,4-triazol-5-yl)-methoxy-d2)-[1,2,4]triazolo[4,3-b]pyridazine] | 91 ± 7.1 | –
2 | [2H]C([2H])([2H])C([2H])([2H])n1ncnc1COc1nn2c(-c3ccccc3F)nnc2cc1C(C([2H])([2H])[2H])(C([2H])([2H])[2H])C([2H])([2H])[2H] [Compound 105] | 90 ± 0.7 | –
3 | [2H]C([2H])(Oc1nn2c(-c3ccccc3F)nnc2cc1C(C([2H])([2H])[2H])(C([2H])([2H])[2H])C([2H])([2H])[2H])c1ncnn1C([2H])([2H])C([2H])([2H])[2H] [Compound 106, 7-d9-tert-Butyl-6-((1-d5-ethyl-1H-1,2,4-triazol-5-yl)-methoxy-d2)-3-(2-fluorophenyl)-[1,2,4]triazolo[4,3-b]pyridazine] | 89 ± 2.5 | –
4 | [2H]C([2H])([2H])n1ncnc1COc1nn2c(-c3ccccc3F)nnc2cc1C(C([2H])([2H])[2H])(C([2H])([2H])[2H])C([2H])([2H])[2H] [Compound 109, 7-d9-tert-Butyl-3-(2-fluorophenyl)-6-((1-d3-methyl-1H-1,2,4-triazol-5-yl)methoxy)-[1,2,4]triazolo[4,3-b]pyridazine] | 100 ± 5.7 | –
5 | CCn1ncnc1COc1nn2c(-c3ccccc3F)nnc2cc1C(C)(C)C [TPA023, 7-tert-Butyl-6-(1-ethyl-1H-1,2,4-triazol-5-ylmethoxy)-3-(2-fluorophenyl)-1,2,4-triazolo[4,3-b]pyridazine] | 62 ± 3.1 | half-life at 0.25 μM [1]: 44.5 ± 4.4 min; sedative effects ([2]; certain doses tested): sedative effects at certain doses tested; anxiolytic effects [2]: anxiolytic effects; effect on alertness, muscle relaxation or memory [2]: no effect
6 | [2H]C([2H])([2H])C(c1cc2nnc(-c3ccccc3F)n2nc1OCc1ncnn1CC)(C([2H])([2H])[2H])C([2H])([2H])[2H] [Compound 102, 7-d9-tert-Butyl-6-((1-ethyl-1H-1,2,4-triazol-5-yl)methoxy)-3-(2-fluorophenyl)-[1,2,4]-triazolo[4,3-b]pyridazine] | 80 ± 3.3 | half-life at 0.25 μM [1]: 85.6 ± 6.1 min
7 | [2H]C([2H])(Oc1nn2c(-c3ccccc3F)nnc2cc1C(O)(C([2H])([2H])[2H])C([2H])([2H])[2H])c1ncnn1C([2H])([2H])C([2H])([2H])[2H] [Compound 206, 2-(6-((1-d5-Ethyl-1H-1,2,4-triazol-5-1)methoxy-d2)-3-(2-fluorophenyl)-[1,2,4]triazolo[4,3-b]pyridazin-7-yl)propan-1,1,1,3,3,3-d6-2-ol] | 92 ± 3.5 | –
8 | [2H]C([2H])([2H])C(O)(c1cc2nnc(-c3ccccc3F)n2nc1OCc1ncnn1CC)C([2H])([2H])[2H] [Compound 202, 2-(6-((1-ethyl-1H-1,2,4-triazol-5-yl)methoxy)-3-(2-fluorophenyl)[1,2,4]triazolo[4,3-b]pyridazin-7-yl)propan-1,1,1,3,3,3-d6-2-ol] | 82 ± 2.8 | –
